Read-outs that look alike come from different tables or passages of the source.
Assays:
SW13 = experiment: Cell panel screen (CellTiter-Glo); format: cell-based, human; details: Homo sapiens, read-out: Percent Inhibition
Summary of the method: (§1)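 Growth inhibition (%) was determined from luminescence proportional to cellular ATP after cells had been incubated with compound (20 μM final) for 72 h at 37°C, with matched DMSO controls and cell-free wells defining the range.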

TCCSUP = experiment: Cell panel screen (CellTiter-Glo); format: cell-based, human; details: Homo sapiens, TCC-SUP, read-out: Percent Inhibition
Summary of the method: as §1

CW-2 = experiment: Cell panel screen (CellTiter-Glo); format: cell-based, human; details: Homo sapiens, read-out: Percent Inhibition
Summary of the method: as §1

A498 = experiment: Cell panel screen (CellTiter-Glo); format: cell-based, human; details: Homo sapiens, read-out: Percent Inhibition
Summary of the method: as §1

J82 = experiment: Cell panel screen (CellTiter-Glo); format: cell-based, human; details: Homo sapiens, read-out: Percent Inhibition
Summary of the method: as §1

A704 = experiment: Cell panel screen (CellTiter-Glo); format: cell-based, human; details: Homo sapiens, read-out: Percent Inhibition
Summary of the method: as §1

HCC1395 = experiment: Cell panel screen (CellTiter-Glo); format: cell-based, human; details: Homo sapiens, read-out: Percent Inhibition
Summary of the method: as §1

JAK1 = biological target: T1, JAK1 (Homo sapiens, UniProt P23458); experiment: Microfluidic mobility shift enzyme assay; format: biochemical
T1 construct: purchased Carna Bioscience, Inc. (Japan)
Protocol: (§2) The microfluidic mobility shift enzyme assay was performed in an on-chip incubation mode on a Caliper LabChip 2000 Drug Discovery System (Caliper Life Sciences, Hopkinton, MA). The extent of inhibition by the compounds is measured directly by quantifying the level of both unphosphorylated peptide substrate and phosphorylated product after electrophoretic separation using Caliper's LabChip assay technology. To evaluate the compounds for their target and the mechanism by which the compound affects JAK enzyme activity, the compounds were tested against JAK family kinases (JAK1, JAK2, JAK3, and Tyk2) with the Caliper microfluidic mobility-shift platform. The JAK family kinase enzymes and the FAM-labeled substrates were purchased from Carna Bioscience, Inc. (Japan) and Caliper Bioscience (US), respectively.
(§3) For JAK kinase activity measurement, the test compounds were diluted freshly with assay buffer (100 mM HEP ES, 10 mM MgCl2, 1.5 mM betaine, 0.015% Brij, and 25 mM β-glycerophosphate) and added to 384-well plates. FAM-labeled peptide substrate and ATP in assay buffer were added to the wells. After that, JAK enzymes prepared in assay buffer were also added to the wells and mixed to start the reaction. After a period of incubation at room temperature, the reaction was stopped by stop solution (500 mM EDTA). Finally, the plate was put on a Caliper LabChip 2000 system and a droplet of the reaction mixture was applied for electrophoretic separation in the chips of the machine. The enzyme conversion data then was read out for analysis.

JAK2 = biological target: T2, JAK2 (Homo sapiens, UniProt O60674); experiment: Microfluidic mobility shift enzyme assay; format: biochemical
T2 construct: purchased Carna Bioscience, Inc. (Japan)
Protocol: as §2, §3

JAK3 = biological target: T3, JAK3 (Homo sapiens, UniProt P52333); experiment: Microfluidic mobility shift enzyme assay; format: biochemical
T3 construct: purchased Carna Bioscience, Inc. (Japan)
T3 sequence (P52333 1-1124): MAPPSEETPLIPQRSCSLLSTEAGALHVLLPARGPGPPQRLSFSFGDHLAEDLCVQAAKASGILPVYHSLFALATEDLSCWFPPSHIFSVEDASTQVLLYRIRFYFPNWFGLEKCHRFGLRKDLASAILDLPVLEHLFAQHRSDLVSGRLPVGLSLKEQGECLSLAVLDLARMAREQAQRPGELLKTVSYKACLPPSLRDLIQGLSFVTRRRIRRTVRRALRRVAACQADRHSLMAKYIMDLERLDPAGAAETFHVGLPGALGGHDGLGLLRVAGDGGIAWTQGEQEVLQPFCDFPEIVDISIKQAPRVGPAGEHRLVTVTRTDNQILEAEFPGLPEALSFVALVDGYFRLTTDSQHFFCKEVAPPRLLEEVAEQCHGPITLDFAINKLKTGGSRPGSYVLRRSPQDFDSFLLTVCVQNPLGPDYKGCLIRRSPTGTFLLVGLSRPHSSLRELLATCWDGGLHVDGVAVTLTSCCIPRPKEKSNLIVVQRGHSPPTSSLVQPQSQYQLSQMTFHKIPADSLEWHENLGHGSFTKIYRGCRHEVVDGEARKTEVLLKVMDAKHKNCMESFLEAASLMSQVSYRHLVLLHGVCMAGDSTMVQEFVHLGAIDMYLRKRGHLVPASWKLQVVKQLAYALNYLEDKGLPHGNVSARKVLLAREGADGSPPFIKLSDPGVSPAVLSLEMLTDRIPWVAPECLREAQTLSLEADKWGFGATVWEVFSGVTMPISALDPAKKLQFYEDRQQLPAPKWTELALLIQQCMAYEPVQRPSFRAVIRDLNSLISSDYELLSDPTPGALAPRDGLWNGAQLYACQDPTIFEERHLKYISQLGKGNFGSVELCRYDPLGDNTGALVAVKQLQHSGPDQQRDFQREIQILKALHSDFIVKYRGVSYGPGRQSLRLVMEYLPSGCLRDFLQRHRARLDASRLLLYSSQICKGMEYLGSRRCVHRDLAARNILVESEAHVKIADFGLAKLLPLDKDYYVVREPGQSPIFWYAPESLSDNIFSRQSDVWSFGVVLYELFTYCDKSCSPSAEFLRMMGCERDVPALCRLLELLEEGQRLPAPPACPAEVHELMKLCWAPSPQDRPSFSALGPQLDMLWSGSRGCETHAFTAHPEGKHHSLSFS
Protocol: as §2, §3

Tyk2 = biological target: T4, Tyk2 (Homo sapiens, UniProt P29597); experiment: Microfluidic mobility shift enzyme assay; format: biochemical
T4 construct: purchased Carna Bioscience, Inc. (Japan)
Protocol: as §2, §3

[1] = SW13 (Adrenal gland), 20 micromolar, 72 hrs
[2] = TCCSUP (Urinary bladder), 20 micromolar, 72 hrs
[3] = CW-2 (Colon), 20 micromolar, 72 hrs
[4] = A498 (listed under Lung), 20 micromolar, 72 hrs
[5] = J82 (Urinary bladder), 20 micromolar, 72 hrs
[6] = A704 (Kidney), 20 micromolar, 72 hrs
[7] = HCC1395 (Breast), 20 micromolar, 72 hrs

T4 sequence (P29597 whole entry): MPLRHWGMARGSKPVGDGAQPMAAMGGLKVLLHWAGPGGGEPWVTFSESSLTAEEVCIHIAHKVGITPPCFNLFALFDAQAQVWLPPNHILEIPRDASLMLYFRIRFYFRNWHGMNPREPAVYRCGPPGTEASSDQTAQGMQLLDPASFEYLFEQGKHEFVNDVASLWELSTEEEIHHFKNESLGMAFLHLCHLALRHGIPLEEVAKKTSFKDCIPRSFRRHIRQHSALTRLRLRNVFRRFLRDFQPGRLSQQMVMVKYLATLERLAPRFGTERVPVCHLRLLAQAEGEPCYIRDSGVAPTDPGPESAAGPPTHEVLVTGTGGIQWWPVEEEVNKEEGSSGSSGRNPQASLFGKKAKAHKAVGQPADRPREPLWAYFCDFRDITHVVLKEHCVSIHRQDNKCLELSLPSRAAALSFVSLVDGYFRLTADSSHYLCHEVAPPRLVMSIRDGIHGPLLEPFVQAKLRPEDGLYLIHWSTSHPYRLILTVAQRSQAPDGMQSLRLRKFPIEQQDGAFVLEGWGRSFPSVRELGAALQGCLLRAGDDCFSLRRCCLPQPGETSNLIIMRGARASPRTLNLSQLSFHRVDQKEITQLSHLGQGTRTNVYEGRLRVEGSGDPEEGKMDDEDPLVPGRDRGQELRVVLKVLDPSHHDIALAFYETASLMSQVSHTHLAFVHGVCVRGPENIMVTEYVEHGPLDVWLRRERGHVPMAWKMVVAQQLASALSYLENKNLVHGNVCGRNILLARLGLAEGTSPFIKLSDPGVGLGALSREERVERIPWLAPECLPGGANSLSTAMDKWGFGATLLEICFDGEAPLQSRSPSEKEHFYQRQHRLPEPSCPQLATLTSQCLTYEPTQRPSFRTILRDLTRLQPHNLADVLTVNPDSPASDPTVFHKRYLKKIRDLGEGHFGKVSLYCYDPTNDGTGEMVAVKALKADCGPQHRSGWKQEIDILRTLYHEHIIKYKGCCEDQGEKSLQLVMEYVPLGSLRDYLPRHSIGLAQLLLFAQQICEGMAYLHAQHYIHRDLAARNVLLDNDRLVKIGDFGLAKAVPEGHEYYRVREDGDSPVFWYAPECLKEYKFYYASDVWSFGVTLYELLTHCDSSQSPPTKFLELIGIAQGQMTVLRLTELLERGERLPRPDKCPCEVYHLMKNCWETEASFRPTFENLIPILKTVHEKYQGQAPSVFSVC
T1 sequence (P23458 whole entry): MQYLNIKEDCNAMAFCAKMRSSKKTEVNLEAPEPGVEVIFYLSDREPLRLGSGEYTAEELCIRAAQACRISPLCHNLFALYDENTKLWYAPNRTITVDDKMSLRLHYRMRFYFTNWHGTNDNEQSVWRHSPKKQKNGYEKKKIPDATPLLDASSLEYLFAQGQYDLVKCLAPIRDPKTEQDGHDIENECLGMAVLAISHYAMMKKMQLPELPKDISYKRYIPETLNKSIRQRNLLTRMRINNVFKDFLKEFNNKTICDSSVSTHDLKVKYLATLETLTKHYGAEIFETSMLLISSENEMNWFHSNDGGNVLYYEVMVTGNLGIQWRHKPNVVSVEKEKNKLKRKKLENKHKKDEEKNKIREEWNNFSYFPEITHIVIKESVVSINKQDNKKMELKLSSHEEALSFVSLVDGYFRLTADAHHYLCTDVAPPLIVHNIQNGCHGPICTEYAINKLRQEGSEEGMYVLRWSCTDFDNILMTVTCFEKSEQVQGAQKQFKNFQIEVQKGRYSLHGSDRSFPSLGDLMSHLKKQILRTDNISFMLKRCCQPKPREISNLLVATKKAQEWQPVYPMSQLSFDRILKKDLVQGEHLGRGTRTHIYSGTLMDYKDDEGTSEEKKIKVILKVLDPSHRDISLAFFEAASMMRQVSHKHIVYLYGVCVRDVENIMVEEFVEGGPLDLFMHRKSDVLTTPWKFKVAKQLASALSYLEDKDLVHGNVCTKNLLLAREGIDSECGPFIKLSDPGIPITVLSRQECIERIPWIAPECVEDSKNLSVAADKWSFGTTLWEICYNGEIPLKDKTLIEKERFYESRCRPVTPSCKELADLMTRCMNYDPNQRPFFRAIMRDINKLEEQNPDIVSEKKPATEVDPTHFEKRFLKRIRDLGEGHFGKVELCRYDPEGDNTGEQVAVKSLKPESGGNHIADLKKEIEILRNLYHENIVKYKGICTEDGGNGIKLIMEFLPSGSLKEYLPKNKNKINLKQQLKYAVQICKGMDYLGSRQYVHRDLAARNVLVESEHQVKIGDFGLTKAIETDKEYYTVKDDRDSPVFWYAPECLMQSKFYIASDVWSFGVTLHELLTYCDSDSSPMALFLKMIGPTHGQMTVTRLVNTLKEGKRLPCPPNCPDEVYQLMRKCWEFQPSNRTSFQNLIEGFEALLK
T2 sequence (O60674 whole entry): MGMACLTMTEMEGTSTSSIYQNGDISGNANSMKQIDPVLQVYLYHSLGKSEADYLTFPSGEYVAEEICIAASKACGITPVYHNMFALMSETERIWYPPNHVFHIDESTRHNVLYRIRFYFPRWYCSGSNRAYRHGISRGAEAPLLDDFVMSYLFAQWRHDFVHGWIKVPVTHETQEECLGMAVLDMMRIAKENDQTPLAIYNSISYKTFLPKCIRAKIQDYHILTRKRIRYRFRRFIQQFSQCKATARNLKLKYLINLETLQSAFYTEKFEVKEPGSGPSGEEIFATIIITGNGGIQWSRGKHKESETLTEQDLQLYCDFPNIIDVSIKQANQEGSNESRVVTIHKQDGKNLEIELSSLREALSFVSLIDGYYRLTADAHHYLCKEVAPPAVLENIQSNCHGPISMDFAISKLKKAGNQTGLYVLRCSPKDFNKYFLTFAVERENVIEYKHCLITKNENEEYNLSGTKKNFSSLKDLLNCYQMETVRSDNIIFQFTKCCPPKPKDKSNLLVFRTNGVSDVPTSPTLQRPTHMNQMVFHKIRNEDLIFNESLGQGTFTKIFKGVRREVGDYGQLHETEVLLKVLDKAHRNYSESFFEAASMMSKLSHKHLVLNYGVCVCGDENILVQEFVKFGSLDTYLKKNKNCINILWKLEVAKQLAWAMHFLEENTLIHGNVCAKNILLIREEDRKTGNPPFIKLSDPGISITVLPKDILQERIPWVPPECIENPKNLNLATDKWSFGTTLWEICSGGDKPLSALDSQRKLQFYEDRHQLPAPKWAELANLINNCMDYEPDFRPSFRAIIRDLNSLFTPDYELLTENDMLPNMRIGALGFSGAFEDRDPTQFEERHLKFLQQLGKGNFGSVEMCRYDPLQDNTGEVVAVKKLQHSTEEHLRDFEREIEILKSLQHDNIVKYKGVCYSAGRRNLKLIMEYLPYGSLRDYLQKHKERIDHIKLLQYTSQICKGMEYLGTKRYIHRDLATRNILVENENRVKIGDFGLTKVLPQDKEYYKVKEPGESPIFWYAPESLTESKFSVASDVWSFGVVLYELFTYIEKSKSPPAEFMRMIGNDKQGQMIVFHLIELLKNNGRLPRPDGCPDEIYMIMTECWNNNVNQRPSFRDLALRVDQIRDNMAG

Structure (SMILES)	inhibition of JAK1 kinase activity (in words) (JAK1)	inhibition of JAK2 kinase activity (in words) (JAK2)	inhibition of JAK3 kinase activity (in words) (JAK3)	inhibition of Tyk2 kinase activity (in words) (Tyk2)	inhibition at 20 µM (SW13; [1])	inhibition at 20 µM (TCCSUP; [2])	inhibition at 20 µM (CW-2; [3])	inhibition at 20 µM (A498; [4])	inhibition at 20 µM (J82; [5])	inhibition at 20 µM (A704; [6])	inhibition at 20 µM (HCC1395; [7])	IC50 (JAK1; JAK1 enzyme, read-out: IC50)	difference in IC50s between JAK2 and Tyk2 (JAK2)	IC50 (JAK2; JAK2 enzyme, read-out: IC50)	IC50 (JAK3; JAK3 enzyme, read-out: IC50)	IC50 (Tyk2; Tyk2 enzyme, read-out: IC50)	further results
CC(C)=CCC/C(C)=C/Cc1c(O)c(CC=C(C)C)c2c(c1O)C(=O)C1=C[C@@H]3C[C@H]4C(C)(C)O[C@@](CC=C(C)C)(C3=O)[C@@]14O2 [GB32]	no effect	minor inhibition	minor inhibition	no effect													inhibition at 20 µM (SW13; SW13, 72 h): 99%; inhibition at 20 µM (TCCSUP; 72 h): 99%; inhibition at 20 µM (CW-2; CW-2, 72 h): 99%; inhibition at 20 µM (A498; A498, 72 h): 98%; inhibition at 20 µM (J82; J82, 72 h): 99%; inhibition at 20 µM (A704; A704, 72 h): 99%; inhibition at 20 µM (HCC1395; HCC1395, 72 h): 99%; IC50 (JAK1): > 40 µM; IC50 (JAK2; IC50, JAK2 enzyme): 37.3 ± 6.9 µM; IC50 (JAK3; IC50, JAK3 enzyme): 17.5 ± 1.5 µM; IC50 (Tyk2): > 40 µM
CC(C)=CCC[C@@]1(C)C=Cc2c(O)c3c(c(CCC(C)(C)O)c2O1)O[C@]12C(=C[C@@H]4C[C@H]1C(C)(C)O[C@@]2(C/C=C(/C)C(=O)O)C4=O)C3=O [GB39, 33-hydroxyepigambogic acid]	minor inhibitory effects	significantly inhibited	significantly inhibited	minor inhibitory effects	100%	100%	100%	99%	100%	99%	100%	12.2 ± 0.3 µM	10 fold	1.7 ± 0.1 µM	3.8 ± 0.3 µM	13 ± 1.6 µM	
CC(C)=CCC/C(C)=C/Cc1c(O)c(CC=C(C)C)c2c(c1O)C(=O)C1=C[C@@H]3C[C@H]4C(C)(C)O[C@@](C/C=C(\C)C=O)(C3=O)[C@@]14O2 [GB49]					99%	99%	99%	88%	98%	98%	99%						
CC(C)=CCC/C(C)=C/Cc1c(O)c(CC=C(C)C)c2c(c1O)C(=O)C1=C[C@@H]3C[C@H]4C(C)(C)O[C@@](C/C=C(\C)C(=O)O)(C3=O)[C@@]14O2 [GB63]					99%	99%	99%	98%	99%	99%	99%						
CC(C)=CCC[C@@]1(C)C=Cc2c(O)c3c(c(C/C=C(\C)CO)c2O1)O[C@]12C(=C[C@@H]4C[C@H]1C(C)(C)O[C@@]2(C/C=C(/C)C(=O)O)C4=O)C3=O [GB40, 35-hydroxyepigambogic acid]	minor inhibitory effects	significantly inhibited	significantly inhibited	minor inhibitory effects	98%	99%	99%	98%	99%	98%	98%	14.2 ± 0.4 µM	10 fold	1.4 ± 0.1 µM	3.2 ± 0.2 µM	12.9 ± 0.9 µM	
